Reference: publication PMC2248166, “Quantitative peptide binding motifs for 19 human and mouse MHC class I molecules derived using positional scanning combinatorial peptide libraries” (Immunome Research, 2008)

Key:
HLA B*2705 = HLA B*2705 (Homo sapiens, UniProt P01889, D138H/D201E/E176V/E204Q/G107R/H137Y/K202T/N104T/N87E/Q56L/Q94K/R106L/R155S/R180L/S101D/S121N/S48T/Y140D/Y33H/Y91C); format: binding; settings: positional scanning combinatorial 9-mer library; normalized to 1.0 for the best residue at each position
H-2 D^b = H-2 D^b (Mus musculus, UniProt P01899); format: binding
HLA B*5802 = HLA B*5802 (Homo sapiens, UniProt P01889, A329T/C349S/D201E/D98Y/E176V/E187L/E204Q/E69T/G107R/I218V/I90N/K202T/L105A/N104I/N87E/Q89R/Q94S/R106L/R155S/R180L/R86G/S101N/S121W/S35A/S48A/V127L/V306I/V36M/Y140S/Y91M); format: binding
HLA A*3201 = HLA A*3201 (Homo sapiens, UniProt P04439, A270S/D101S/D185E/E176V/E277Q/F133L/G103R/G107R/G231S/H175R/I121M/I218V/I322F/K168Q/L105A/L300P/L318F/M331R/P208A/P217A/Q94H/R106L/R138Q/S129P/T104I/T323A/T345S/V100E/V321M/V358M); experiment: biochemical; format: binding
HLA B*1503 = HLA B*1503 (Homo sapiens, UniProt P01889, A329T/A93T/A95T/C349S/D201E/D98Y/E187L/E204Q/K202T/N87E/Q94N/R155S/R180L/S121R/S35A/V306I/V36M/Y140S/Y91S); experiment: biochemical; format: binding
H-2 D^d = H-2 D^d (Mus musculus, UniProt P01900); format: binding
H-2 K^k = H-2 K^k (Mus musculus, UniProt P04223); format: binding
HLA A*6802 = HLA A*6802 (Homo sapiens, UniProt P04439, A269V/D140Y/D185E/E176V/E277Q/E87N/F33Y/G231S/I121R/I166T/I218V/L180W/L300P/L318F/N151K/P208A/P217A/Q86R/R138H/R169H/S129P/T345S/V36M); format: binding
HLA B*5401 = HLA B*5401 (Homo sapiens, UniProt P01889, A329T/C349S/D138N/D201E/E176V/E187T/E204Q/E69G/I76V/K202T/L119W/R155S/R180L/S121T/S35A/S48A/V127L/V306I/V36M/Y140L); format: binding
HLA B*3501 = HLA B*3501 (Homo sapiens, UniProt P01889, A329T/A93T/A95T/C349S/D201E/D98Y/E176V/E187L/E204Q/E69T/I218V/K202T/L119I/Q94N/R155S/R180L/S121R/S35A/S48A/T118I/V127L/V306I/V36M/Y140S/Y91F); format: binding
HLA B*1501 = HLA B*1501 (Homo sapiens, UniProt P01889, A329T/A93T/A95T/C349S/D201E/D98Y/E187L/E204Q/E69M/E70A/K202T/N87E/Q94N/R155S/R180W/S121R/S35A/S48A/V306I/V36M/Y140S/Y91S); experiment: biochemical; format: binding
HLA B*0702 = HLA B*0702 (Homo sapiens, UniProt P01889); format: binding; settings: positional scanning combinatorial 9-mer library; normalized to 1.0 for the best residue at each position
HLA A*3001 = HLA A*3001 (Homo sapiens, UniProt P04439, D140H/D185E/E176W/F33S/G80R/H175R/K168Q/R138E/R41S); experiment: biochemical; format: binding
HLA A*0201 = HLA A*0201 (Homo sapiens, UniProt P04439, D140Y/D185E/D98H/E176V/E277Q/G131W/G231S/I119V/I121R/I166T/I218V/L300P/L318F/N151K/N90K/P208A/P217A/Q86G/Q94H/R138H/R169H/T345S); settings: positional scanning combinatorial 9-mer library; normalized to 1.0 for the best residue at each position
HLA B*0801 = HLA B*0801 (Homo sapiens, UniProt P01889, A93T/A95T/D138N/E176V/E187T/K202T/Q94N/R180D/S35A/V36M/Y33D/Y91F); experiment: biochemical; format: binding
HLA B*5101 = HLA B*5101 (Homo sapiens, UniProt P01889, A329T/A93T/A95T/C349S/D138N/D201E/D98Y/E187L/E204Q/E69T/G107R/I218V/K202T/L105A/L119W/N104I/Q94N/R106L/R155S/R180L/S101N/S121T/S35A/S48A/V306I/V36M/Y195H/Y91F); format: binding
HLA B*5801 = HLA B*5801 (Homo sapiens, UniProt P01889, A329T/C349S/D201E/D98Y/E176V/E187L/E204Q/E69T/G107R/I218V/I90N/K202T/L105A/L119I/N104I/N87E/Q89R/Q94S/R106L/R155S/R180L/R86G/S101N/S121R/S35A/S48A/T118I/V127L/V306I/V36M/Y140S/Y91M); format: binding
HLA B*5301 = HLA B*5301 (Homo sapiens, UniProt P01889, A329T/A93T/A95T/C349S/D201E/D98Y/E176V/E187L/E204Q/E69T/G107R/I218V/K202T/L105A/L119I/N104I/Q94N/R106L/R155S/R180L/S101N/S121R/S35A/S48A/T118I/V127L/V306I/V36M/Y140S/Y91F); format: binding

Sequence of H-2 D^d (P01900 whole entry, looked up): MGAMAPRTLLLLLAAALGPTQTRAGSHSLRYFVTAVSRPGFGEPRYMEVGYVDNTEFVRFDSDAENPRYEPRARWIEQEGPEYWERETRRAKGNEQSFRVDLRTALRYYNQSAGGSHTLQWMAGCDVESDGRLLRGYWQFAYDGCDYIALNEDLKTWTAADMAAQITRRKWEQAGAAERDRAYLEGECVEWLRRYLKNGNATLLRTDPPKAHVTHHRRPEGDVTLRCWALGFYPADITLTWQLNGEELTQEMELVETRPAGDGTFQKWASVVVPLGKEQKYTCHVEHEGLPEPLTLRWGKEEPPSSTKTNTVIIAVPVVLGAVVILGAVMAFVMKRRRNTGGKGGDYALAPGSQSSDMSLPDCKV
Sequence of H-2 D^b (P01887 21-119): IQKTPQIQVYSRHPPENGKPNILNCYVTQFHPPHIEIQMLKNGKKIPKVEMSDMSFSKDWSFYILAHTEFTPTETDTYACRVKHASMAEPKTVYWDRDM
Sequence of H-2 D^b (P01899 25-362): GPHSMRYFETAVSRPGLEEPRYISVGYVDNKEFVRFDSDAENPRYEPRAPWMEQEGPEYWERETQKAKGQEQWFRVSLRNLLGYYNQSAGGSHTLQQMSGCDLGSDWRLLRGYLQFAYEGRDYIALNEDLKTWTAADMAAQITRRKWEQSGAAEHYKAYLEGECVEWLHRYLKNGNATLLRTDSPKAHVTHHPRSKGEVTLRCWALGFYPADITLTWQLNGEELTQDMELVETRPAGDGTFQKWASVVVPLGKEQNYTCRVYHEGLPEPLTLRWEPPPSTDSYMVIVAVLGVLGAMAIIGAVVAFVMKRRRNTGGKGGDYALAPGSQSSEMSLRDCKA
Sequence of H-2 K^k (P01887 21-119): as the sequence (P01887 21-119) above
Sequence of H-2 K^k (P04223 22-369): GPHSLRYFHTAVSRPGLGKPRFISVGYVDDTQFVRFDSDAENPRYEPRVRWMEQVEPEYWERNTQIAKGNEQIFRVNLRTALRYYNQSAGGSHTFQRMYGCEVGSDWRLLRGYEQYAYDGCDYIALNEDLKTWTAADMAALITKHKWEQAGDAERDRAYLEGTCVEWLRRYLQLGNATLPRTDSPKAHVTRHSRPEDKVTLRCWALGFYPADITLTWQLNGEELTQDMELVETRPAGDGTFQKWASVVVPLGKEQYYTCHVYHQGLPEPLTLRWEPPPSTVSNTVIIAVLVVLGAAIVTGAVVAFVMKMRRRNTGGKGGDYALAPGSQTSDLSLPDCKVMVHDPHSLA

| Sequence | Normalized average relative binding affinity (ARB), HLA B*2705 (HLA B*2705) | Normalized average relative binding affinity (ARB), H-2 Db (H-2 D^b) | Normalized average relative binding affinity (ARB), HLA B*5802 (HLA B*5802) | Normalized average relative binding affinity (ARB), HLA A*3201 (HLA A*3201) | Normalized average relative binding affinity (ARB), HLA B*1503 (HLA B*1503) | Normalized average relative binding affinity (ARB), H-2 Dd (H-2 D^d) | Normalized average relative binding affinity (ARB), H-2 Kk (H-2 K^k) | Normalized average relative binding affinity (ARB), HLA A*6802 (HLA A*6802) | Normalized average relative binding affinity (ARB), HLA B*5401 (HLA B*5401) | Normalized average relative binding affinity (ARB), HLA B*3501 (HLA B*3501) | Normalized average relative binding affinity (ARB), HLA B*1501 (HLA B*1501) | Normalized average relative binding affinity (ARB), HLA B*0702 (HLA B*0702) | Normalized average relative binding affinity (ARB), HLA A*3001 (HLA A*3001) | Normalized average relative binding affinity (ARB), HLA A*0201 (HLA A*0201) | Normalized average relative binding affinity (ARB), HLA B*0801 (HLA B*0801) | Normalized average relative binding affinity (ARB), HLA B*5101 (HLA B*5101) | Normalized average relative binding affinity (ARB), HLA B*5801 (HLA B*5801) | Normalized average relative binding affinity (ARB), HLA B*5301 (HLA B*5301) |
| --- | --- | --- | --- | --- | --- | --- | --- | --- | --- | --- | --- | --- | --- | --- | --- | --- | --- | --- |
| XLXXXXXXX [3064.0030] | 0.0053 | 0.18 | 0.13 | 0.29 | 0.18 | 0.035 | 0.062 | 0.097 | 0.0037 | 0.035 | 0.52 | 0.016 | 0.16 | 1.0 | 0.72 | 0.022 | 0.043 | 0.035 |
| XMXXXXXXX [3064.0031] | 0.010 | 0.73 | 0.17 | 0.63 | 0.57 | 0.018 | 0.012 | 0.055 | 0.0072 | 0.035 | 0.96 | 0.0028 | 0.70 | 0.19 | 0.70 | 0.039 | 0.0033 | 0.040 |
| XNXXXXXXX [3064.0032] | 0.0016 | 0.11 | 0.20 | 0.025 | 0.032 | 0.018 | 0.0053 | 0.034 | 0.0018 | 0.0078 | 0.052 | 0.0028 | 0.10 | 0.0062 | 0.16 | 0.022 | 0.012 | 0.0083 |
